Consider 3 compounds from ChEMBL document CHEMBL5226287, “Small organic molecules targeting the energy metabolism of Mycobacterium tuberculosis” (Eur J Med Chem, 2021).

A short description of assay [1]: Inhibition of Mycobacterium smegmatis cytochrome bd oxidase with ATP synthase overexpression inverted membrane vesicles. The format is cell membranes, Mycobacterium tuberculosis, Membrane vesicle.
Assay [2] in a line: Inhibition of Mycobacterium bovis BCG cytochrome bd oxidase with ATP synthase overexpression inverted membrane vesicles. The format is cell membranes, Mycobacterium tuberculosis variant bovis, Membrane vesicle.
A short description of assay [3]: Inhibition of Mycobacterium smegmatis cytochrome bd oxidase with ATP overexpression inverted membrane vesicles. In kind it is cell membranes, Mycobacterium tuberculosis, Membrane vesicle.

Starred links: 1 amine or outer side, 2 acyl side, 3 side chain; linkers in the order of their positions; H or OH if unused. Non-standard residues stand in square brackets, D forms with d. Residues, ends and D or L forms follow the SMILES beside them. ξ: configuration not given here. *: point of attachment. X1 = CCC(=O)C[C@@H](O)C[C@@H](C)C[C@H](N[*:1])C(=O)[*:2]; Alaψ(CH2NMeCH2CH2OH) = C[C@@H](CN(C)CCO)N*; Decanoyl(2R-Me) = CCCCCCCC[C@@H](C)C(=O)*; Ile(3ξ) = CCC(C)[C@H](N)C(=O)O; ξβ3hP = O=C(O)CC1CCCN1; Aib = CC(C)(N)C(=O)O

By IC50 is commonly meant the midpoint of a concentration-inhibition curve.

On to `CCCCCCCC[C@@H](C)C(=O)N1CCCC1CC(=O)N[C@@H](C[C@H](C)C[C@H](O)CC(=O)CC)C(=O)NC(C)(C)C(=O)NC(C)(C)C(=O)N[C@H](C(=O)N[C@H](C(=O)NC(C)(C)C(=O)NC(C)(C)C(=O)N[C@@H](C)CN(C)CCO)C(C)C)C(C)CC` (stereo partly drawn) ({Decanoyl(2R-Me)}-[ξβ3hP][X1][Aib][Aib][Ile(3ξ)]V[Aib][Aib]-{Alaψ(CH2NMeCH2CH2OH)}), for which the IC50 was found to be 0.5 µM in assay [1] and 5.2 µM in assay [2]. Turning to `O=C(CNC1CCCC1)N(c1ccccc1)c1ccccc1`, the half-inhibitory concentration (IC50) in assay [3] came out at 14 µM. For `O=C(CNC1CCCCC1)N(c1ccccc1)c1ccccc1`, in assay [3], the IC50 worked out at 10.4 µM. This IC50 and that of the compound before are within 1.5-fold of each other.
